Laboratory results published in PMC9890698 (BMC Biology, 2023).
Several values for one entry are separate records, joined by “and”; a condition that tells them apart may be missing. Identical values can stand only once.

Target: T1, Human P2Y1-R (Homo sapiens, UniProt P47900)
T1 construct: expressed in transfected cells; host or cells: HEK293T/17
Assay: Gαq protein activation BRET2 assay (Gαq-RLuc8/GFP2-Gγ2/Gβ1) in HEK293T cells expressing P2Y1-R
Type: cell-based
Design: ADP-modulated BRET / MRS2179-modulated BRET: unit not given here
Settings: for G protein signaling, Ligand-modulated BRET (% of maximum MRS2179 mean value): Figure 4a, individual replicates
Description: As previously described, using a BRET^2 (bioluminescence resonance energy transfer)-based assay, we directly monitored the basal Gαq protein activation by measuring the interaction between Gαq and Gγ2 subunits of the Gαqβ1γ2 heterotrimer complex. Indeed, this assay is based on the non-radiative transfer between the Renilla reniformis luciferase (RLuc8) energy donor fused to the Gαq protein subunit and the fluorescent GFP2 energy acceptor fused to Gγ2 protein subunit (Fig. 1a). […] By contrast, ligand-independent constitutive receptor activation or agonist-induced receptor activation will promote Gαq/Gγ2 subunit dissociation, thereby leading to a decrease of the basal BRET signal (Fig. 1a). […] To preclude any P2Y1-R activation by a passive release of ADP by HEK293T cells, we performed similar experiments in the presence of high concentration of apyrase (0.2U/mL) to degrade any trace of ADP in the medium (Additional File 2: Fig. S2a). Under these conditions, P2Y1-R expression still induces a marked and significant decrease of the basal BRET signal compared to control cells (pcDNA3.1), thereby supporting a P2Y1-R-dependent constitutive activation of Gαq protein. […] Of note, because P2Y1-R and AT1-R were respectively Myc- and HA-tagged and were thus detected using different primary antibodies, their expression at the cell surface cannot be compared between each other’s.
Human P2Y1-R (NCBI Reference Sequence: NM_002563.2) and P2Y12-R (NCBI Reference Sequence: NM_022788.3) were fused to double Myc epitope and rat AT1-R (NCBI Reference Sequence: NM_030985.4) to HA tag in N-terminus extracellular region. Alternatively, receptors were also fused to Venus tag in C-terminus intracellular region. Plasmids encoding Gαq-RLuc8, GFP2-Gγ2 and untagged Gβ1 were previously described. ADP was purchased from Sigma-Aldrich/Merck (Darmstadt, Germany). […] The Gq inhibitor (FR900359) was kindly supplied by Evi Kostenis (University of Bonn. Germany).
G protein activation and β-arrestin 2 recruitment were performed as previously described. Briefly, vectors encoding receptors, Gαq-RLuc8, GFP2-Gγ2, Gβ1, or β-arrestin 2 were transiently cotransfected into HEK293T/17 cells as indicated in the figure legends. Forty-eight hours after transfection, cells were washed and resuspended in PBS containing 0.1% (w/v) glucose at room temperature and then distributed (80 μg proteins/well) in a 96-well microplate (PerkinElmer). For G protein activation experiments (BRET^2), cells were incubated in the absence (basal BRET signal) or in the presence of ligand for 1 minute. BRET signal between RLuc8 and GFP2 was measured after addition of the luciferase substrate coelenterazine 400a (5 μM). For β-arrestin 2 recruitment (BRET^1), cells were stimulated with ligands for 5 or 15 min. BRET signal was recorded after incubation with coelenterazine h (5 μM) for 8 min. For kinetics studies, BRET signal between RLuc and Venus was recorded at 20-s intervals at basal state for the 2 first minutes and then for 5 min after ligand injection. For saturation curves (BRET^1), the expression level of Venus- or RLuc-tagged protein was determined by direct measurement of total fluorescence and luminescence respectively. Total fluorescence was first measured with an excitation filter at 485 nm and an emission filter at 520 nm. Then, the same sample was incubated for 8 minutes with 5 μM coelenterazine h and the total luminescence was measured. BRET^2 and BRET^1 readings were collected using a modified Infinite F500 (Tecan Group Ltd). The BRET^2 signal was calculated by the ratio of emission of GFP2 (510–540 nm) to RLuc8 (370–450 nm) and the BRET^1 signal by the ratio of emission of Venus (520–570 nm) to RLuc (370–480 nm). […]

[1] = G protein signaling, Fig. 4a, 1 min

T1 sequence (P47900 whole entry): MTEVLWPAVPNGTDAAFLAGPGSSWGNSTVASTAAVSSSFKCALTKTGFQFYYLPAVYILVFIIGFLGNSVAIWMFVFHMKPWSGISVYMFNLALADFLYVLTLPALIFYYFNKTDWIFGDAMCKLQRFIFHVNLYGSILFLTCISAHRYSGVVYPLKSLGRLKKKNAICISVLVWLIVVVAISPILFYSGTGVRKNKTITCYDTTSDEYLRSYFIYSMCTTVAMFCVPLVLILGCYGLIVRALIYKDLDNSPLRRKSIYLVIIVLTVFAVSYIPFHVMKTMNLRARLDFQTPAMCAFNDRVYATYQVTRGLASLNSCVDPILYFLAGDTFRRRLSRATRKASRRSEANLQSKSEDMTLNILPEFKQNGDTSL

What does the source list for `CNc1ncnc2c1ncn2[C@H]1C[C@H](OP(=O)(O)O)[C@@H](COP(=O)(O)O)O1` [MRS2179]?
Maximal efficacy (Emax ± s.e.m.), MRS2179-modulated BRET (Fig. 1f, 1 min stimulation, difference in BRET signal with and without ligand): 0.1224 ± 0.01335; EC50 (Fig. 1f, MRS2179 inverse agonism on Gαq protein activity, 1 min): 11.1 µM; pEC50 ± s.e.m. (Fig. 1f, inverse agonism on Gαq protein activity, 1 min): 4.955 ± 0.1405; G protein signaling, Ligand-modulated BRET (% of maximum MRS2179 mean value) ([Ligand] 1.00E-04 M): 119.465 % of maximum MRS2179 mean value and 98.3727 % of maximum MRS2179 mean value and 97.2091 % of maximum MRS2179 mean value and 96.9774 % of maximum MRS2179 mean value and 99.1946 % of maximum MRS2179 mean value and 88.7807 % of maximum MRS2179 mean value; G protein signaling, Ligand-modulated BRET (% of maximum MRS2179 mean value) ([Ligand] 1.00E-05 M): 56.3081 % of maximum MRS2179 mean value and 33.7445 % of maximum MRS2179 mean value and 25.9535 % of maximum MRS2179 mean value and 52.677 % of maximum MRS2179 mean value and 40.3542 % of maximum MRS2179 mean value and 35.9046 % of maximum MRS2179 mean value; G protein signaling, Ligand-modulated BRET (% of maximum MRS2179 mean value) ([Ligand] 1.00E-06 M): 9.486 % of maximum MRS2179 mean value and 10.5017 % of maximum MRS2179 mean value and 11.1842 % of maximum MRS2179 mean value and 16.1238 % of maximum MRS2179 mean value and -1.632 % of maximum MRS2179 mean value and 9.136 % of maximum MRS2179 mean value; G protein signaling, Ligand-modulated BRET (% of maximum MRS2179 mean value) ([Ligand] 1.00E-07 M): -1.306 % of maximum MRS2179 mean value and -6.5129 % of maximum MRS2179 mean value and -11.3924 % of maximum MRS2179 mean value and -9.0003 % of maximum MRS2179 mean value and -8.705 % of maximum MRS2179 mean value and -1.657 % of maximum MRS2179 mean value; G protein signaling, Ligand-modulated BRET (% of maximum MRS2179 mean value) ([Ligand] 1.00E-08 M): 0.5671 % of maximum MRS2179 mean value and -5.257 % of maximum MRS2179 mean value and -11.3188 % of maximum MRS2179 mean value and -7.6778 % of maximum MRS2179 mean value and -4.305 % of maximum MRS2179 mean value and -3.069 % of maximum MRS2179 mean value; G protein signaling, Ligand-modulated BRET (% of maximum MRS2179 mean value) ([Ligand] 1.00E-09 M): -1.107 % of maximum MRS2179 mean value and -5.538 % of maximum MRS2179 mean value and -15.6317 % of maximum MRS2179 mean value and -13.6938 % of maximum MRS2179 mean value and -9.3466 % of maximum MRS2179 mean value and -3.722 % of maximum MRS2179 mean value; G protein signaling, Ligand-modulated BRET (% of maximum MRS2179 mean value) ([Ligand] 1.00E-10 M): -2.846 % of maximum MRS2179 mean value and -13.4143 % of maximum MRS2179 mean value and -1.422 % of maximum MRS2179 mean value and -10.0078 % of maximum MRS2179 mean value and -9.182 % of maximum MRS2179 mean value and 0.7769 % of maximum MRS2179 mean value; EC50 [1]: 15.2 µM; pEC50 ± s.e.m. [1]: 4.817 ± 0.0671; Emax ± s.e.m. (G protein signaling, Fig. 4a, 1 min, normalized to the mean value of maximal MRS2179 response, in %): 115.7 ± 5.057; Behaviour on P2Y1-R-dependent constitutive Gαq protein activation (HEK293T cells, result in words): inverse agonist; MRS2179-modulated BRET ([MRS2179] 1.00E-04 M, 1 min): 0.06995 and 0.1332 and 0.1164 and 0.136 and 0.09077
